Reference: the NIST ThermoML archive (doi:10.1016/j.jct.2018.08.035)

Assay: xn = mol fraction of the nth substance listed
Details: 100 kPa, Liquid, Vibrating tube method

CCC(O)CC [3-pentanol] + C[N+](=O)[O-]
Details	mass density [kg/m3]
290.86 K, x1 = 0.414	977.244
290.86 K, x1 = 0.615	890.972
290.95 K, x1 = 0.246	1006.81
290.95 K, x1 = 0.266	998.292
290.95 K, x1 = 0.275	994.793
290.95 K, x1 = 0.3	988.13
290.95 K, x1 = 0.325	987.695
290.95 K, x1 = 0.338	986.437
290.95 K, x1 = 0.363	982.374
290.95 K, x1 = 0.382	980.189
290.95 K, x1 = 0.407	976.76
290.95 K, x1 = 0.414	976.042
290.95 K, x1 = 0.486	956.644
290.95 K, x1 = 0.488	952.742
290.95 K, x1 = 0.546	927.124
290.95 K, x1 = 0.573	908.776
290.95 K, x1 = 0.587	897.749
290.95 K, x1 = 0.615	890.865
291.05 K, x1 = 0.246	1006.69
291.05 K, x1 = 0.275	994.663
291.05 K, x1 = 0.382	978.765
291.05 K, x1 = 0.407	975.346
291.05 K, x1 = 0.414	974.647
291.05 K, x1 = 0.486	954.019
291.05 K, x1 = 0.488	945.483
291.05 K, x1 = 0.573	903.111
291.06 K, x1 = 0.266	998.167
291.06 K, x1 = 0.3	986.306
291.06 K, x1 = 0.325	985.699
291.06 K, x1 = 0.338	984.897
291.06 K, x1 = 0.363	981.518
291.06 K, x1 = 0.546	924.902
291.06 K, x1 = 0.587	897.593
291.06 K, x1 = 0.615	890.758
291.15 K, x1 = 0.246	1006.56
291.15 K, x1 = 0.266	998.042
291.15 K, x1 = 0.275	994.538
291.15 K, x1 = 0.3	985.201
291.15 K, x1 = 0.325	983.513
291.15 K, x1 = 0.338	982.822
291.15 K, x1 = 0.382	977.024
291.15 K, x1 = 0.407	973.664
291.15 K, x1 = 0.414	973.001
291.15 K, x1 = 0.486	951.113
291.15 K, x1 = 0.488	947.64
291.15 K, x1 = 0.573	901.117
291.15 K, x1 = 0.615	890.652
291.15 K, x1 = 0.629	887.189
291.16 K, x1 = 0.363	980.295
291.16 K, x1 = 0.546	921.069
291.16 K, x1 = 0.587	897.497
291.25 K, x1 = 0.246	1006.44
291.25 K, x1 = 0.266	997.918
291.25 K, x1 = 0.275	994.413
291.25 K, x1 = 0.3	985.014
291.25 K, x1 = 0.325	980.203
291.25 K, x1 = 0.338	980.22
291.25 K, x1 = 0.382	974.837
291.25 K, x1 = 0.407	971.578
291.25 K, x1 = 0.414	970.955
291.25 K, x1 = 0.486	947.303
291.25 K, x1 = 0.488	944.104
291.25 K, x1 = 0.573	901.031
291.25 K, x1 = 0.587	897.388
291.25 K, x1 = 0.615	890.547
291.26 K, x1 = 0.363	978.023
291.26 K, x1 = 0.546	917.045
291.35 K, x1 = 0.246	1006.32
291.35 K, x1 = 0.275	994.289
291.35 K, x1 = 0.382	972.169
291.35 K, x1 = 0.407	969.156
291.35 K, x1 = 0.414	968.504
291.35 K, x1 = 0.486	943.014
291.35 K, x1 = 0.488	939.641
291.35 K, x1 = 0.573	900.922
291.36 K, x1 = 0.266	997.796
291.36 K, x1 = 0.3	984.888
291.36 K, x1 = 0.325	976.768
291.36 K, x1 = 0.338	976.695
291.36 K, x1 = 0.363	976.137
291.36 K, x1 = 0.546	910.024
291.36 K, x1 = 0.587	897.278
291.36 K, x1 = 0.615	890.441
291.45 K, x1 = 0.246	1006.19
291.45 K, x1 = 0.275	994.165
291.45 K, x1 = 0.338	972.479
291.45 K, x1 = 0.382	968.647
291.45 K, x1 = 0.407	965.925
291.45 K, x1 = 0.414	965.499
291.45 K, x1 = 0.486	938.691
291.45 K, x1 = 0.488	935.781
291.45 K, x1 = 0.546	907.652
291.45 K, x1 = 0.573	900.812
291.45 K, x1 = 0.587	897.17
291.45 K, x1 = 0.615	890.332
291.46 K, x1 = 0.266	997.671
291.46 K, x1 = 0.3	984.765
291.46 K, x1 = 0.325	975.497
291.46 K, x1 = 0.363	971.707
291.55 K, x1 = 0.246	1006.07
291.55 K, x1 = 0.275	994.042
291.55 K, x1 = 0.382	965.717
291.55 K, x1 = 0.407	961.145
291.55 K, x1 = 0.414	961.374
291.55 K, x1 = 0.486	933.844
291.55 K, x1 = 0.488	932.33
291.55 K, x1 = 0.573	900.7
291.56 K, x1 = 0.266	997.549
291.56 K, x1 = 0.3	984.639
291.56 K, x1 = 0.325	975.358
291.56 K, x1 = 0.338	970.561
291.56 K, x1 = 0.363	967.75
291.56 K, x1 = 0.546	907.531
291.56 K, x1 = 0.587	897.059
291.56 K, x1 = 0.615	890.227
291.65 K, x1 = 0.246	1005.95
291.65 K, x1 = 0.266	997.425
291.65 K, x1 = 0.275	993.918
291.65 K, x1 = 0.325	975.23
291.65 K, x1 = 0.338	970.427
291.65 K, x1 = 0.363	961.876
291.65 K, x1 = 0.382	955.241
291.65 K, x1 = 0.407	957.953
291.65 K, x1 = 0.414	956.971
291.65 K, x1 = 0.486	923.683
291.65 K, x1 = 0.488	922.941
291.65 K, x1 = 0.546	907.417
291.65 K, x1 = 0.573	900.591
291.65 K, x1 = 0.615	890.121
291.66 K, x1 = 0.3	984.514
291.66 K, x1 = 0.587	896.95
291.75 K, x1 = 0.246	1005.83
291.75 K, x1 = 0.266	997.302
291.75 K, x1 = 0.275	993.795
291.75 K, x1 = 0.3	984.391
291.75 K, x1 = 0.325	975.108
291.75 K, x1 = 0.338	970.303
291.75 K, x1 = 0.363	961.743
291.75 K, x1 = 0.382	955.25
291.75 K, x1 = 0.414	944.629
291.75 K, x1 = 0.486	923.534
291.75 K, x1 = 0.488	922.803
291.75 K, x1 = 0.546	907.305
291.75 K, x1 = 0.573	900.482
291.75 K, x1 = 0.615	890.018
291.76 K, x1 = 0.407	947.126
291.76 K, x1 = 0.587	896.844
291.85 K, x1 = 0.246	1005.7
291.85 K, x1 = 0.275	993.671
291.85 K, x1 = 0.3	984.268
291.85 K, x1 = 0.338	970.173
291.85 K, x1 = 0.382	955.119
291.85 K, x1 = 0.414	944.718
291.85 K, x1 = 0.486	923.411
291.85 K, x1 = 0.573	900.371
291.85 K, x1 = 0.615	889.909
291.86 K, x1 = 0.266	997.179
